Assay: gradient 5% acetonitrile 3 min, to 50% in 2 min, to 85% in 15 min, held 3 min, 100 µL/min
Details: column: Zorbax Extend-C18 2.1 x 50 mm; eluents: water / acetonitrile, 0.1% formic acid
Procedure, shortened: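 In both positive and negative ionization mode, a quadrupole time-of-flight mass spectrometer coupled to HPLC analyzed pure standards run in mixtures of ~100 molecules. The Zorbax Extend-C18 column (2.1 × 50 mm, 1.8 μm) was operated at 100 μL/min with water and acetonitrile, each containing 0.1% formic acid. The dead volume was 40 μL and the dwell volume 900 μL. Retention time came from adduct peaks that were computationally picked and individually inspected by hand.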

Row | RP-LC retention time [s] | SMILES
1 | 661 | O=C(c1cc(C2CC2)[nH]n1)N1CCCCC1
2 | 767 | O=C(Nc1ccccc1)Nc1ccccc1
3 | 962 | COc1ccc(-c2nc(NC(=O)c3ccc(C#N)cc3)sc2C)cc1
4 | 755 | CC1Oc2ccc(S(=O)(=O)N3CCC(C(=O)NCc4ccc5c(c4)OCO5)CC3)cc2NC1=O (stereo not given)
5 | 1090 | CCOc1ccc(C2c3[nH]c4ccccc4c3CCN2C(=O)C2CC2)cc1 (stereo not given)
6 | 707 | O=C(Cc1ccc(F)cc1)NC1CCN(c2cc(-c3cccs3)[nH]n2)C1 (stereo not given)
7 | 762 | COc1ccc(-c2nnc(SCc3cc(=O)n4c(C)csc4n3)o2)cc1OC
8 | 889 | COc1ccc(N2CC(c3noc(-c4ccc(N(C)C)cc4)n3)CC2=O)cc1 (stereo not given)
9 | 861 | O=C(C1=CN(c2cc(F)cc(F)c2)c2cc(Cl)ccc2S1(=O)=O)N1CCCC1
10 | 935 | CCOC(=O)c1nc(N2CCc3ccccc32)c2ccccc2n1
11 | 716 | CC(CCc1ccccc1)NC(=O)Cn1nc2n(c1=O)CCCC2 (stereo not given)
12 | 864 | CCOc1ccc(OCC)c(NS(=O)(=O)c2cc(-c3c(C)noc3NC(C)=O)ccc2OC)c1
13 | 1010 | Cc1cccc(-n2c(=O)c3sccc3n(Cc3nc(-c4ccccc4Cl)no3)c2=O)c1
14 | 749 | Cc1nn(-c2ccc(C(=O)NCc3cccs3)cc2)c2c1C(=O)CCC2
15 | 688 | Cn1cc(CC(=O)NCc2ccc(F)cc2F)c2cccnc21
16 | 983 | O=C(NCc1cccs1)c1cnn2c(-c3ccc(Cl)cc3)ccnc12
17 | 882 | CC(C)NC(=O)N1CCC2(CC1)CCC(O)(CN1CCc3ccccc31)CC2
18 | 676 | Cn1ncc(N2CCCC(CC(=O)NCc3cccs3)C2)cc1=O (stereo not given)
19 | 566 | Cc1cc(N2CCOCC2)nc(N2CCN(C(=O)Cc3ccc(F)cc3)CC2)n1
20 | 670 | CCOC(=O)C1=C(CN(C)Cc2ccccc2)NC(=O)NC1c1ccc(C)cc1 (stereo not given)
21 | 1300 | CC(C)c1ccc(-c2csc(NC(=O)c3cccc(Cl)c3)n2)cc1
22 | 604 | Cn1cnnc1SCC(=O)N1CCc2ccccc21
23 | 694 | CCCC(=O)N1CCCC(c2nc(CNC(=O)C3CCC3)cs2)C1 (stereo not given)

Row | RP-LC retention time [s] | SMILES
24 | 660 | N#Cc1cccc(NC(=O)N2CCC(c3cc(N)on3)CC2)c1
25 | 903 | O=C1CCc2cc(S(=O)(=O)NCCc3ccc(Cl)cc3)cc3c2N1CCC3
26 | 824 | NS(=O)(=O)c1ccc(NC(=O)Cc2cn(Cc3ccc(F)cc3)c3ccccc23)cc1
27 | 744 | Cc1ccc(-n2c(Cc3cccn3C)nnc2SCC(=O)NCC2CCCO2)cc1 (stereo not given)
28 | 979 | COc1cc(Cl)cc2c1OC=CC(C(=O)Nc1ccc(N3CCOCC3)cc1)=C2
29 | 726 | CN(C(=O)c1ccc(-c2cccc([N+](=O)[O-])c2)o1)C1CCS(=O)(=O)C1 (stereo not given)
30 | 627 | CCOC(=O)CCNC(=O)N1CCCCCCN(C)C(=O)CC1
31 | 1010 | O=C(Nc1ccc(C(F)(F)F)cc1)c1cnc(-c2ccccc2)nc1-c1ccncc1
32 | 1100 | Cc1ccc(-c2nc(C3CC(=O)N(c4ccc(F)cc4)C3)no2)cc1C (stereo not given)
33 | 961 | CCn1cc(-c2nc(CC(=O)Nc3ccc(F)c(F)c3)cs2)c2cccnc21
34 | 1050 | CCOc1ccc(-c2noc(CN3C(=O)COc4ccc(Cl)cc43)n2)cc1OC
35 | 822 | CC(C)NC(=O)N1CCCC(c2cccc(C(=O)NCc3ccc4c(c3)OCO4)c2)C1 (stereo not given)
36 | 874 | O=C(COc1ccc(F)cc1)N1CCN(c2ccc(=O)n(-c3ccc(Cl)cc3)n2)CC1
37 | 651 | Cc1oc2c(c1C(=O)NCCc1ccccc1Cl)C1=NCCN1C=N2
38 | 839 | CC1CCN(C(=O)c2cc(S(=O)(=O)N3CCC(C(=O)N4CCCCCC4)CC3)cn2C)CC1
39 | 666 | CC(C)Cn1c(=O)c(C(=O)NCc2ccc(N3CCCCC3)cc2)nc2cccnc21
40 | 742 | Cc1nnc(N2CCCC(C(=O)NCc3cccs3)C2)c2nn(-c3ccc(Cl)cc3)c(C)c12 (stereo not given)
41 | 1320 | CCOc1ccccc1NC(=O)c1csc2c1CCC(C)C2 (stereo not given)
42 | 912 | Cc1ccc(-c2csc3c(=O)n(CC(=O)NC4CCCC4)cnc23)cc1
43 | 784 | COC(=O)c1ccc(C2CC(=O)Nc3cc(OC)cc(OC)c32)cc1 (stereo not given)
44 | 649 | COc1ccc(N2CC(CNC(=O)C3CCCC3)OC2=O)cc1OC (stereo not given)
45 | 779 | O=C(c1ccc(OCC2CCCN2C(=O)c2ccc(F)c(F)c2)cc1)N1CCCC1 (stereo not given)
46 | 687 | COc1ccc(N2CCN(CCCNC(=O)NC3COc4ccc(OC)cc4C3)CC2)cc1 (stereo not given)

Row | RP-LC retention time [s] | SMILES
47 | 592 | CCCn1c(C(=O)NN2CCCC2=O)cc2c(=O)n(C)c(=O)n(C)c21
48 | 783 | CCn1cc(CC(=O)NCC2CCCCC2)c2cccnc21
49 | 654 | O=C(Nc1cnc(-c2cccnc2)nc1)C1CCCC1
50 | 884 | COC(=O)c1cccc(-c2nc(C3CC(=O)N(c4ccc(F)cc4)C3)no2)c1 (stereo not given)
51 | 748 | O=C(Cn1cc(S(=O)(=O)c2ccc(F)cc2)c2ccccc21)NC1CC1
52 | 886 | O=C(COc1ccc([N+](=O)[O-])cc1)Nc1ccc(S(=O)(=O)N2CCCCC2)cc1
53 | 857 | CCCc1ccc(-c2cc(C(=O)N3CCN(c4ccccn4)CC3)c3ccccc3n2)cc1
54 | 847 | O=C(CSc1nnc(-c2cccc(S(=O)(=O)N3CCOCC3)c2)o1)c1ccccc1
55 | 795 | CCn1c(C(=O)N2CCC(C(=O)NCc3cccc(OC)c3)CC2)cc2occc21
56 | 716 | CCc1nncn1C1CCN(S(=O)(=O)c2ccc(Cl)c(C)c2)CC1
57 | 648 | CCn1ccc2cc(S(=O)(=O)N3CCCC(C(=O)NCCCN4CCOCC4)C3)ccc21 (stereo not given)
58 | 758 | CCC(=O)N1c2ccc(S(=O)(=O)N3CCCCC3)cc2CC1C(=O)NC1CC1 (stereo not given)
59 | 666 | CC(=O)Nc1ccc(C2=NN(C(C)=O)C(c3ccc4c(c3)OCO4)C2)cc1 (stereo not given)
60 | 610 | CCOCCCNC(=O)C1CCN(c2nnc3c(Cl)cccn23)CC1
61 | 790 | Cc1ccc(NC(=O)N2CCC(n3cnc4ccc(F)cc4c3=O)CC2)c(C)c1
62 | 702 | N#Cc1ccc2[nH]cc(CCCCN3CCN(c4ccc5oc(C(N)=O)cc5c4)CC3)c2c1
63 | 700 | CCNC(=O)CCc1nc2ccccc2n(CC(=O)NCc2ccc(OC)cc2)c1=O
64 | 959 | CC(=O)N1c2ccc(S(=O)(=O)N3CCCCCC3)cc2CC1C(=O)NC1CCCCCC1 (stereo not given)
65 | 851 | Cc1cccc(CN2CCN(C3CCN(C(=O)Nc4ccccc4)CC3)C2=O)c1
66 | 1020 | O=C(c1ccccc1C(F)(F)F)N1CCc2nc(-c3ccc(F)cc3)ncc2C1
67 | 857 | CC(Oc1cccc(F)c1)C(=O)NCCOc1ccccc1 (stereo not given)
68 | 743 | O=C(Cc1c[nH]c2ccccc12)NC1CCN(c2cc(-c3ccc(Cl)cc3)[nH]n2)C1 (stereo not given)
69 | 947 | O=C(O)c1ccc(Nc2ncc3c(n2)-c2ccc(Cl)cc2C(c2c(F)cccc2F)=NC3)cc1

Row | RP-LC retention time [s] | SMILES
70 | 1050 | COc1ccc(-n2c(=O)c(C(=O)NCc3ccco3)c(O)c3cccnc32)cc1
71 | 702 | CCOCC(=O)N1CCN(S(=O)(=O)c2c(C)nn(C(C)C)c2C)CC1
72 | 650 | Cn1cc(-c2ccncc2)cc1C(=O)N1CCN(c2ccccc2F)CC1
73 | 1160 | COc1cccc(Cn2c(=O)c3sccc3n(Cc3nc(-c4cccc(C)c4)no3)c2=O)c1
74 | 838 | CCOC(=O)c1c(C)[nH]c(C(=O)N2CCCC(C(=O)NC3CCCCC3)C2)c1C (stereo not given)
75 | 1060 | O=c1ccc(-c2cccc(Cl)c2)nn1CCc1nc(-c2ccc(F)cc2)no1
76 | 939 | CCCN(CC1CCOC1)S(=O)(=O)c1cc(Cl)ccc1OC (stereo not given)
77 | 1050 | CCN1C(=O)COc2ccc(-c3csc(NC(=O)C4CCCCC4)n3)cc21
78 | 738 | CC(C)N(C(=O)Cn1c(CN2CCCCC2)nc2ccccc21)c1ccccc1
79 | 894 | COc1ccccc1-c1noc(C2CCCN2C(=O)Nc2cccc(F)c2)n1 (stereo not given)
80 | 782 | Cc1nc(N2CCCC2)c2c(C(=O)NCCc3ccc(Cl)cc3)c(C)oc2n1
81 | 647 | CN1C(=O)c2ccccc2C(C(=O)NCCCN2CCc3ccccc3C2)C1c1cccs1 (stereo not given)
82 | 626 | Cc1cc(C)c2c(N3CCOCC3)nc(C(=O)N3CCC(C)CC3)nc2n1
83 | 786 | O=C(Cn1c(=O)c(=O)n(Cc2ccccc2)c2ncccc21)NCc1ccco1
84 | 642 | Cc1ccc(-c2cn3c(n2)N(C(=O)c2cnccn2)CCC3)cc1
85 | 623 | NS(=O)(=O)c1ccc(NC(=O)CN2C(=O)c3ccccc3C2=O)cc1
86 | 628 | Cc1cnc(C(=O)N2CCC(c3noc(-c4cccnc4)n3)C2)cn1 (stereo not given)
87 | 682 | Cc1ccc(Nc2ncnc3nc[nH]c23)cc1Cl
88 | 720 | CCN(CC)C(=O)c1c(C)sc2ccn(CC)c(=O)c12
89 | 883 | CCCn1cc(S(=O)(=O)Nc2cccc(F)c2)c2cccnc21
90 | 607 | CCOC(=O)c1ccc2nc(C)cc(NC(=O)c3cccs3)c2c1

From the METLIN SMRT retention time set (Domingo-Almenara et al. 2019)
